Key:
Assay in all cases: biochemical
Design in all cases: DiscoveRx KINOMEscan competition binding, percent of DMSO control signal at 100 nM
Settings in all cases: read-out: Fig. 4a / Percent Control / Compound 1; percent of DMSO control, competition binding
[1] = molecular target: T1, ABL1(H396P)-phosphorylated (Homo sapiens, UniProt P00519, H396P)
T1 construct: phosphorylated

[2] = molecular target: T2, CDK4-cyclinD3 (Homo sapiens, UniProt P11802)
T2 construct: cyclinD3

[3] = molecular target: CLK2 (Homo sapiens, UniProt P49760)
[4] = molecular target: EGFR(L858R) (Homo sapiens, UniProt P00533, L858R)
[5] = molecular target: T3, ERK1 (Homo sapiens, UniProt P27361)
T3 construct: gene MAPK3

[6] = molecular target: FGR (Homo sapiens, UniProt P09769)
[7] = molecular target: FLT3(ITD,F691L) (Homo sapiens, UniProt P36888, F691L/ITD)
[8] = molecular target: HCK (Homo sapiens, UniProt P08631)
[9] = molecular target: T4, IKK-beta (Homo sapiens, UniProt O14920)
T4 construct: gene IKBKB

[10] = molecular target: IRAK1 (Homo sapiens, UniProt P51617)
[11] = molecular target: T5, JAK2(JH1domain-catalytic) (Homo sapiens, UniProt O60674)
T5 construct: JH1domain-catalytic

[12] = molecular target: MAK (Homo sapiens, UniProt P20794)
[13] = molecular target: MAP3K1 (Homo sapiens, UniProt Q13233)
[14] = molecular target: MAP4K2 (Homo sapiens, UniProt Q12851)
[15] = molecular target: MUSK (Homo sapiens, UniProt O15146)
[16] = molecular target: NEK2 (Homo sapiens, UniProt P51955)
[17] = molecular target: T6, OSR1 (Homo sapiens, UniProt O95747)
T6 construct: gene OXSR1

[18] = molecular target: PIK3CA(Q546K) (Homo sapiens, UniProt P42336, Q546K)
[19] = molecular target: PIKFYVE (Homo sapiens, UniProt Q9Y2I7)
[20] = molecular target: PKN2 (Homo sapiens, UniProt Q16513)
[21] = molecular target: PLK1 (Homo sapiens, UniProt P53350)
[22] = molecular target: SRC (Homo sapiens, UniProt P12931)
[23] = molecular target: T7, TRKA (Homo sapiens, UniProt P04629)
T7 construct: gene NTRK1

[24] = molecular target: VRK2 (Homo sapiens, UniProt Q86Y07)
[25] = molecular target: WEE1 (Homo sapiens, UniProt P30291)
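Note: KINOMEscan kinase panel binding assay, signal normalized between DMSO as 100% and a positive control compound as 0%.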

VRK2, sequence (Q86Y07 whole entry): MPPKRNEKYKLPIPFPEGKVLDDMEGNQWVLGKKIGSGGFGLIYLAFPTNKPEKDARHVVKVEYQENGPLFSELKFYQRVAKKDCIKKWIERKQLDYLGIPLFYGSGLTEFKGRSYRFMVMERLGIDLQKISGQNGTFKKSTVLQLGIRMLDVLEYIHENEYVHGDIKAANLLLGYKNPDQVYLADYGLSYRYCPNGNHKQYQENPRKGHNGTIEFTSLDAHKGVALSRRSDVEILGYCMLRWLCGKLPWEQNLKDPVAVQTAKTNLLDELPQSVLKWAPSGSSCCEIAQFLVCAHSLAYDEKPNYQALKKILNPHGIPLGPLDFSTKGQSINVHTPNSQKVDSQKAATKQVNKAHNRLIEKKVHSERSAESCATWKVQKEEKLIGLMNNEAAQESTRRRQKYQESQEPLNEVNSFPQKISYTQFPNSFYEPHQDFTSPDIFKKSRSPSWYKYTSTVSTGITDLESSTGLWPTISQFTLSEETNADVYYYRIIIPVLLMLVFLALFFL
MAK, sequence (P20794 whole entry): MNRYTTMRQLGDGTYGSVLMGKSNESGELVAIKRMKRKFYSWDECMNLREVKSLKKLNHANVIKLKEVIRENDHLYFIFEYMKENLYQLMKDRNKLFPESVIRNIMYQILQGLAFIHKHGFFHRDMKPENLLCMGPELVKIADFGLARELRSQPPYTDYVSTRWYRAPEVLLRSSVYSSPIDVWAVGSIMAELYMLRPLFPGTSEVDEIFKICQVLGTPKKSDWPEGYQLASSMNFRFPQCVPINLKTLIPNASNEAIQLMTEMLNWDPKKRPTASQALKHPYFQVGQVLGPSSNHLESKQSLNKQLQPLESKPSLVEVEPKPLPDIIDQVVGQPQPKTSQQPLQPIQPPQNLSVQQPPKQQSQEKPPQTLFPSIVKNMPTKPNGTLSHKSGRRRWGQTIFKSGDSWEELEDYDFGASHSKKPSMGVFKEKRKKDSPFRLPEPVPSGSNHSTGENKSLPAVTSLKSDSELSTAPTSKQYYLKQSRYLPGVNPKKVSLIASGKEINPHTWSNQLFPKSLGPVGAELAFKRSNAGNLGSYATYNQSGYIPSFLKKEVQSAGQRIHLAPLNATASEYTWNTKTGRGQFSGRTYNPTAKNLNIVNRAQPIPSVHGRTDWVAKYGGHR
T6 sequence (O95747 whole entry): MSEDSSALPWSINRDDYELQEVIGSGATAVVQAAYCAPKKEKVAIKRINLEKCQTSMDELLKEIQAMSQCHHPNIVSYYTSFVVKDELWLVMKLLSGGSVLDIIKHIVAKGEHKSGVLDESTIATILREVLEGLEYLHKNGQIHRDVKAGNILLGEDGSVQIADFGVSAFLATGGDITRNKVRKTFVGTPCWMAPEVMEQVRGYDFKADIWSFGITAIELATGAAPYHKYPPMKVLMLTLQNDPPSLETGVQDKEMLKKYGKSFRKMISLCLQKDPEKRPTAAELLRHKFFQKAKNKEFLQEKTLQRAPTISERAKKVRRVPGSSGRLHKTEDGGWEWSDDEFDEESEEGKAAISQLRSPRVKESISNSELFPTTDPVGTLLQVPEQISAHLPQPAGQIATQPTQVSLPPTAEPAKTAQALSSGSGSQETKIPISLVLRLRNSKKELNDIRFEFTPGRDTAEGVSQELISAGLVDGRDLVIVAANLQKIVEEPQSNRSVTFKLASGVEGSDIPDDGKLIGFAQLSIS
PLK1, sequence (P53350 whole entry): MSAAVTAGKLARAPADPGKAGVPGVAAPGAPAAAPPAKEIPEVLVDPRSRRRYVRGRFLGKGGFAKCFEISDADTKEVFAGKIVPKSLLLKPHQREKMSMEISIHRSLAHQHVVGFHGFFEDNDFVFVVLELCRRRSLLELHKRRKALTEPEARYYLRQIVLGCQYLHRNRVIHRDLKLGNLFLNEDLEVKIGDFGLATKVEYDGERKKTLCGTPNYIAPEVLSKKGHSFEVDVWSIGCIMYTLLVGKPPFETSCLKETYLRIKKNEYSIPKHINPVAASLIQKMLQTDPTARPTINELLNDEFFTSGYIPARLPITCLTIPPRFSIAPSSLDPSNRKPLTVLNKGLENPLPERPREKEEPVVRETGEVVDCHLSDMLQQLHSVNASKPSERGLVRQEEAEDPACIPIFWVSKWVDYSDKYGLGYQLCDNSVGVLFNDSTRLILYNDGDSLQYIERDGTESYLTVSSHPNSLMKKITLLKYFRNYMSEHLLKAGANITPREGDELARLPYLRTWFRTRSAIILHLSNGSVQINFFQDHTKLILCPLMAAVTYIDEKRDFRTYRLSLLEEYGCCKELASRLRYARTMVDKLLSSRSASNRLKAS
NEK2, sequence (P51955 whole entry): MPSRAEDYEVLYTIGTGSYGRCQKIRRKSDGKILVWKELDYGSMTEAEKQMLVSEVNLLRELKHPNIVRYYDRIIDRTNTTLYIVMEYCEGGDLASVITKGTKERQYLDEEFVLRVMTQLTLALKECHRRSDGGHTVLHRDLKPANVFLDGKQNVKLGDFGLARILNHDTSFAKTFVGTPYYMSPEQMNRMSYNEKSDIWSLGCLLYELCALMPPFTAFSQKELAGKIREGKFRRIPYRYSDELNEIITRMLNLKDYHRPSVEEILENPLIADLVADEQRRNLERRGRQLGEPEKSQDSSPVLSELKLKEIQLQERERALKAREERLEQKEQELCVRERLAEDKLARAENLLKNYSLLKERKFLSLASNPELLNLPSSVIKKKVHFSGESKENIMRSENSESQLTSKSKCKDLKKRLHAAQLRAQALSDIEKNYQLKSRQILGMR
T3 sequence (P27361 whole entry): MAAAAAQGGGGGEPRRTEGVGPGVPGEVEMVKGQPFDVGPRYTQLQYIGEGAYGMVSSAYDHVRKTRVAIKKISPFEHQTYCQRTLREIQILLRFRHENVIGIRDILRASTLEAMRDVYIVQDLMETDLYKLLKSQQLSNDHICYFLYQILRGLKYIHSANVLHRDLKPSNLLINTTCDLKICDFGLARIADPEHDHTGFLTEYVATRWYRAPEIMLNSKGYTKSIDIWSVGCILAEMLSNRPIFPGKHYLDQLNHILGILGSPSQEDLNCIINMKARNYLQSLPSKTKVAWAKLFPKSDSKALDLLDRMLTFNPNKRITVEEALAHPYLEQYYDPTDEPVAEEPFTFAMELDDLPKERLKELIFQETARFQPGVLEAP
EGFR(L858R), sequence (P00533 whole entry L858R): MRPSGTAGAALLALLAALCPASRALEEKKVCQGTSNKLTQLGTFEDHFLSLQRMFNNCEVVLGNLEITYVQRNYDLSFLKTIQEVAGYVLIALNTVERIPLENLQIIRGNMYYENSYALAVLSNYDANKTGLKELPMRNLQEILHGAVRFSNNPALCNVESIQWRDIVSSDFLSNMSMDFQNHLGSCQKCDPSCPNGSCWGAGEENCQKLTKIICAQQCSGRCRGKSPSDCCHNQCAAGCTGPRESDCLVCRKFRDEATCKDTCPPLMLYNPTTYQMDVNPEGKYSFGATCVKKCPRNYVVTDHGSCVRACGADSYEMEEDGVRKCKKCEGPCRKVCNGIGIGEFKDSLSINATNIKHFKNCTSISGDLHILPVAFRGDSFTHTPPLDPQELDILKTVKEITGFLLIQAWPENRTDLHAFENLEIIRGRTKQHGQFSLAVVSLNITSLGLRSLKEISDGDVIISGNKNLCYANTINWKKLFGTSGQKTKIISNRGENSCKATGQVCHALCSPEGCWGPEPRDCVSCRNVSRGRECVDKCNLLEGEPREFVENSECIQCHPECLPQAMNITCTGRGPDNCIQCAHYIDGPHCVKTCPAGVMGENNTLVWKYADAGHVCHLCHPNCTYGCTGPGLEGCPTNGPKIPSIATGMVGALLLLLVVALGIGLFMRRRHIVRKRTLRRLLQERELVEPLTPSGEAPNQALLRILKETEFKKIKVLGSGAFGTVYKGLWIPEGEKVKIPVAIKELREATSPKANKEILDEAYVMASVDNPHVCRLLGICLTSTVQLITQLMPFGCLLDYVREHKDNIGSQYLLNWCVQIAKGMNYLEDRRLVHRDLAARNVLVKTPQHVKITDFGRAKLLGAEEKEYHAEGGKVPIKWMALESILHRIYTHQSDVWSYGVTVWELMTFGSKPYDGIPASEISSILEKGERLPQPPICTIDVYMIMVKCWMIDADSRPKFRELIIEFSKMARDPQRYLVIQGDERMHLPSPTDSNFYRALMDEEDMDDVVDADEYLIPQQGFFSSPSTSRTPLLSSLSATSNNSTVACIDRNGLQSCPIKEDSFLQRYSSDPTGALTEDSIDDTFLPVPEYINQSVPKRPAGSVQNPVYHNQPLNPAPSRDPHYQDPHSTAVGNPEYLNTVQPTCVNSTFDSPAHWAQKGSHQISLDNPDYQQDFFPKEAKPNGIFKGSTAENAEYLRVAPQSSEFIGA
FLT3(ITD,F691L), sequence (P36888 564-993 F691L): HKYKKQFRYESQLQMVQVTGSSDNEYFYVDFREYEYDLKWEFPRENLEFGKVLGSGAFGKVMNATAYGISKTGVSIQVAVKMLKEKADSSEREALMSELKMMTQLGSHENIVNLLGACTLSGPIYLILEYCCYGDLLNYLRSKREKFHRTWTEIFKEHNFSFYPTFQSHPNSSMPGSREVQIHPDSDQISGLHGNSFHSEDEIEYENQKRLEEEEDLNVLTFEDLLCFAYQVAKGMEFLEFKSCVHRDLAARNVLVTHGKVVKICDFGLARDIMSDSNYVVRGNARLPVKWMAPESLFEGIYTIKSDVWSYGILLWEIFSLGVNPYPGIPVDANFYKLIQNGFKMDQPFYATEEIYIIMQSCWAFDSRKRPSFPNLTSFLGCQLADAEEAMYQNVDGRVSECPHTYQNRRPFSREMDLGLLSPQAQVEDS

`Cc1cnc2nc1Nc1cccc(c1)COCc1cc(ccc1OCCN1CCCC1)N2` [Compound 1] showed a remaining binding at 0.1 µM [1] of 83%, a remaining binding at 0.1 µM [2] of 95% and a remaining binding at 0.1 µM [3] of 81%. For the same compound, the remaining binding at 0.1 µM [4] was 73%, the remaining binding at 0.1 µM [5] was 100% and the remaining binding at 0.1 µM [6] was 100%. It also gave a remaining binding at 0.1 µM [7] of 0%, a remaining binding at 0.1 µM [8] of 100% and a remaining binding at 0.1 µM [9] of 97%. For the same compound, the remaining binding at 0.1 µM [10] was 31%, the remaining binding at 0.1 µM [11] was 0% and the remaining binding at 0.1 µM [12] was 100%. The remaining binding at 0.1 µM [13] was 79%, the remaining binding at 0.1 µM [14] was 78% and the remaining binding at 0.1 µM [15] was 90%. For the same compound, the remaining binding at 0.1 µM [16] was 83%, the remaining binding at 0.1 µM [17] was 66% and the remaining binding at 0.1 µM [18] was 70%. The remaining binding at 0.1 µM [19] was 100%, the remaining binding at 0.1 µM [20] was 100% and the remaining binding at 0.1 µM [21] was 94%. It also gave a remaining binding at 0.1 µM [22] of 75%, a remaining binding at 0.1 µM [23] of 26% and a remaining binding at 0.1 µM [24] of 97%. The remaining binding at 0.1 µM [25] was 90%.
